The subject of one data set is HIV. Conditions: PBMCs (Anderson 2012); cited from earlier work.
The next data set concerns HIV-1. Conditions: cited from earlier work.
For data set [1] the following is noted: in vivo, po. An excerpt:
Antiretroviral concentrations in whole blood or plasma are potentially useful in monitoring adherence to PrEP.

The conditions of data set [2]: in vivo; cited from earlier work.

Results on two compounds are retold here after US20220170949A1, “SYSTEM AND METHOD FOR DETECTING THERAPEUTIC AGENTS TO MONITOR ADHERENCE TO A TREATMENT REGIMEN” (ORASURE TECHNOLOGIES, INC., priority 2019, published 2022).

Where two headings read alike, the source gives them in different places.

With `CC(Cn1cnc2c(N)ncnc21)OCP(=O)(O)OP(=O)(O)OP(=O)(O)O` (stereo in doubt) [tenofovir-diphosphate], the “intracellular concentration associated with a 90% reduction in HIV acquisition relative to the placebo arm” value in the data set on HIV is reported as 16 fmol per million peripheral blood mononuclear cells (PBMCs).
On to `C[C@H](Cn1cnc2c(N)ncnc21)OCP(=O)(O)O` [Tenofovir], for which the “HIV-1 risk reduction corresponding to intracellular tenofovir concentrations” value is reported as 76% in the data set with HIV-1 (2 doses per week), 96% in the data set on HIV-1 (4 doses per week) and 99% in the data set with HIV-1 (7 doses per week). Besides, in data set [1], the “window of medication usage reflected by TFV detection in whole blood or plasma” value was “one to at least seven days”. The intracellular half-life in data set [2] was 150 h. Also, the plasma half-life in data set [2] was 17 h.
